Test results published in ChEMBL document CHEMBL1151824, “Semisynthesis and biological activity of stemofoline alkaloids” (2009).
Values after ≈ are worked out from the molar mass of the structure shown.

What was measured:
Staphylococcus aureus = experiment: Antimicrobial activity against Staphylococcus aureus ATCC 25923 after 24 hrs by broth dilution technique; type: functional
Pseudomonas aeruginosa = experiment: Antimicrobial activity against Pseudomonas aeruginosa ATCC 27853 after 24 hrs by broth dilution technique; type: functional
Candida albicans = experiment: Antimicrobial activity against Candida albicans ATCC 90028 after 24 hrs by broth dilution technique; type: functional; conditions: ATCC 90028, 24 h
[1] = target: Acetylcholinesterase (Homo sapiens) (UniProt P22303); experiment: Inhibition of AChE assessed as white zone of inhibition after 20 mins by TLC bioautography
[2] = Pseudomonas aeruginosa, ATCC 27853, 24 h, read-out: MIC

Acetylcholinesterase (Homo sapiens), sequence (P22303 whole entry): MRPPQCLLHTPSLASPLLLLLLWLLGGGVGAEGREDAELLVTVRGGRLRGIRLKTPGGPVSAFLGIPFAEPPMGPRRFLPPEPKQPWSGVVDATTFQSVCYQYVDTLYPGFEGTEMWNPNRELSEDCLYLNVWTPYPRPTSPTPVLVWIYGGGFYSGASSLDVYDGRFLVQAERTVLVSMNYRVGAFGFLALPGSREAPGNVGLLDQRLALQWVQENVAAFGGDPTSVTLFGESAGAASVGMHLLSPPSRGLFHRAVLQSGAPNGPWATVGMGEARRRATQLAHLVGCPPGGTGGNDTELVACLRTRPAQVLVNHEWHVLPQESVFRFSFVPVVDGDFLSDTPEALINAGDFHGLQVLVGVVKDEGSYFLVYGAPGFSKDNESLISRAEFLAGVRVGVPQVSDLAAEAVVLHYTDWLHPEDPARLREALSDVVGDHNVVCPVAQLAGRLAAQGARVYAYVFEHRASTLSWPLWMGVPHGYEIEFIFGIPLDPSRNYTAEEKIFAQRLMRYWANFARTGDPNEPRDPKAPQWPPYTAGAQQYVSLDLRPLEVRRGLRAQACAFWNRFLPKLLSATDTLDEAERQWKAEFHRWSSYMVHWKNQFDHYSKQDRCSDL

| Compound | MIC (Staphylococcus aureus; ATCC 25923, 24 h) [µg/mL] | MIC (Pseudomonas aeruginosa; [2]) [µg/mL] | MIC (Candida albicans) [µg/mL] | MIC [1] | also measured |
| --- | --- | --- | --- | --- | --- |
| COC1=C(C)C(=O)O/C1=C1\O[C@@]23O[C@H]4C[C@@H]([C@H]2[C@@H]1C)N1CC[C@H]3[C@@]41CC[C@@H](C)O (mixture of isomers) | ≥ 125 | 62.5 | ≥ 125 | 2.5 ×10⁻¹ nmol | – |
| CC/C=C/C12C3CC4C5[C@@H](C)/C(=C6/OC(=O)C(C)=C6OC)O[C@]5(O3)C1CCN42 (stereo partly drawn) | – | ≥ 125 | – | 1.3 ×10⁻² nmol | – |
| CNC(=O)Oc1ccc2c(c1)[C@]1(C)CCN(C)[C@@H]1N2C | – | – | – | 3.6 ×10⁻⁴ nmol | – |
| GENTAMICIN | – | – | – | – | MIC (Staphylococcus aureus): 1.41 µg/mL; MIC (Pseudomonas aeruginosa): 1.41 µg/mL |
| C[C@@H]1[C@H](O)[C@@H](C)/C=C/C=C/C=C/C=C/C=C/C=C/C=C/[C@H](O[C@@H]2O[C@H](C)[C@@H](O)[C@H](N)[C@@H]2O)C[C@@H]2O[C@](O)(C[C@@H](O)C[C@@H](O)[C@H](O)CC[C@@H](O)C[C@@H](O)CC(=O)O[C@H]1C)C[C@H](O)[C@H]2C(=O)O [AMPHOTERICIN B] | – | – | 0.35 (≈ 0.379 µM) | – | – |
| COC1=C(C)C(=O)O/C1=C1\O[C@@]23O[C@H]4C[C@@H]([C@H]2[C@@H]1C)N1CC[C@H]3[C@@]41/C=C/C(C)O (mixture of isomers; 1) | ≥ 125 | 62.5 | ≥ 125 | – | – |
| COC1=C(C)C(=O)O/C1=C1\O[C@@]23O[C@H]4C[C@@H]([C@H]2[C@@H]1C)N1CC[C@H]3[C@@]41C (stereo in doubt; 15) [METHYLSTEMOFOLINE] | ≥ 125 | ≥ 125 | ≥ 125 | – | – |
| COC1=C(C)C(=O)O/C1=C1\O[C@@]23O[C@H]4C[C@@H]([C@H]2[C@@H]1C)N1CC[C@H]3[C@@]41/C=C/C(C)O (mixture of isomers; 2) [listing 1 of 2 here] | – | – | – | – | MIC (Pseudomonas aeruginosa): >=125 ug ml-1 |
| COC1=C(C)C(=O)O/C1=C1\O[C@@]23O[C@H]4C[C@@H]([C@H]2[C@@H]1C)N1CC[C@H]3[C@@]41CCC(C)O (mixture of isomers) | ≥ 125 | ≥ 125 | ≥ 125 | 2.5 ×10⁻² nmol | – |
| COC1=C(C)C(=O)O/C1=C1\O[C@@]23O[C@H]4C[C@@H]([C@H]2[C@@H]1C)N1CC[C@H]3[C@@]41C (stereo in doubt; 3) | – | – | – | 2.9 ×10⁻¹ nmol | – |
| COC1=C(C)C(=O)O/C1=C1\O[C@@]23O[C@H]4C[C@@H]([C@H]2[C@@H]1C)N1CC[C@H]3[C@@]41/C=C/C(C)O (mixture of isomers; 2) [listing 2 of 2 here] | – | – | – | 2.5 ×10⁻¹ nmol | – |
